Data reported in US20240417410A1, “TRICYCLIC COMPOUNDS FOR THE TREATMENT OF CANCER” (Hoffmann-La Roche Inc., priority 2023, published 2024).

Columns and labels:
[1] = tested on: phosphorylation of ERK, KRAS G12C in NCI-H358 cells; assay: pERK inhibition assay; format: cell-based; conditions: Homo sapiens, NCI-H358, 4 h
Method in brief: (§1)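 NCI-H358 (KRAS G12C), AGS (G12D) and SW620 (G12V) cells plated overnight, then treated with compound for 4 h in 0.5% DMSO. After fixing and methanol permeabilisation, phospho-ERK was detected by in-cell ELISA (HRP/TMB, OD450). IC50 from a 4-parameter sigmoidal fit.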

[2] = tested on: phosphorylation of ERK, KRAS G12D in AGS cells; assay: pERK inhibition assay; format: cell-based; conditions: Homo sapiens, AGS, 4 h
Method in brief: as §1

[3] = tested on: phosphorylation of ERK, KRAS G12V in SW620; assay: pERK inhibition assay; format: cell-based; conditions: Homo sapiens, SW-620, 4 h, SW620 cells
Method in brief: as §1

KRAS G12C-BRAF complex = KRAS G12C-BRAF complex (Homo sapiens (Human), UniProt P01116+P62937, G12C); assay: KRAS-BRAF with CYPA (500 nM) interaction assay (TR-FRET, Example 136); format: biochemical; conditions: KRAS G12C-BRAF disruption
Method: In this example, TR-FRET was also used to measure the compound or compound-CYPA dependent disruption of the KRAS G12C-BRAF complex. This protocol was also used to measure disruption of KRAS G12D or KRAS G12V binding to BRAF by a compound of the invention, respectively. In assay buffer containing 25 mM HEPES PH=7.4 (4-(2-hydroxyethyl)-1-piperazineethanesulfonic acid, Thermo, 15630080), 0.002% Tween20, 0.1% BSA, 100 mM NaCl, 5 mM MgCl2, 10 μM GMPPNP (Guanosine 5′-[β,γ-imido]triphosphate trisodium salt hydrate, Sigma, G0635), […] 384-well assay plate at final concentrations of 50 nM, 6.25 nM and 1 nM, respectively. Compound was present in plate wells as a 16-point 3-fold dilution series starting at a final concentration of 10 μM and incubated for 3 hours. A mixture of MAb Anti-6His-XL665 (Cisbio, 61HISXLB) and Mab anti-GST-TB cryptate (Cisbio, 61GSTTLB) was then added at a final concentration of 6.67 nM and 0.21 nM, respectively, and the plate was incubated for an additional 1.5 hours. TR-FRET signal was read on a PHERstar FSX microplate reader (Ex320 nm, Em 665/615 nm). Compounds that facilitate disruption of the KRAS-BRAF complex were identified as those eliciting a decrease in the TR-FRET ratio relative to DMSO control wells.

SW620 cells (KRAS G12V) = assay: Cell viability assay (Cell Counting Kit-8, 3-day); format: cell-based, human; conditions: Homo sapiens, SW-620; SW620, 72 hrs incubation
Method in brief: (§2)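 Read-out is CCK-8 absorbance (OD450 minus OD650, 2 hrs after reagent), reflecting NADPH after 72 hrs of compound exposure in 0.5% DMSO. Seeding density was 5,000 cells/well for NCI-H358 and 2,000 for AGS and SW620. IC50 derived by 4-parameter sigmoidal fitting.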

AGS cells (KRAS G12D) = assay: Cell viability assay (Cell Counting Kit-8, 3-day); format: cell-based, human; conditions: Homo sapiens, 72 h, 72 hrs incubation
Method in brief: as §2

[4] = tested on: NCI-H358 cells (KRAS G12C); assay: Cell viability assay (Cell Counting Kit-8, 3-day); format: cell-based, human; conditions: Homo sapiens, NCI-H358, 72 h, NCI-H358, 72 hrs incubation
Method in brief: as §2

KRAS G12C-BRAF complex, sequence (P01116-2 other isoform, or with tags, fused parts or gaps G12C): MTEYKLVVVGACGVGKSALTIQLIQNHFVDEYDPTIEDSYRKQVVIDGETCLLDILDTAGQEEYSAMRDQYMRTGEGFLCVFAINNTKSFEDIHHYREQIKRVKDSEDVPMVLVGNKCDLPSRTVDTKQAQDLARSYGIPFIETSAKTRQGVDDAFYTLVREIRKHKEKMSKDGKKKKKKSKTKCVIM
KRAS G12C-BRAF complex, sequence (P62937 whole entry): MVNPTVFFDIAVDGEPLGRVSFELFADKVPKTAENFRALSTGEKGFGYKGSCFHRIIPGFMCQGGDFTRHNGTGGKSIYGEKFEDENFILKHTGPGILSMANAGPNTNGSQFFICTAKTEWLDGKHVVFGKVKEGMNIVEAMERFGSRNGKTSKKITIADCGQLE

SMILES | IC50 [1] | IC50 [2] | IC50 [3] | IC50 (KRAS G12C-BRAF complex) | IC50 (SW620 cells (KRAS G12V)) | IC50 (AGS cells (KRAS G12D)) | IC50 [4]
CO[C@@H](C)c1ncc(N2CCN(CC(F)(F)F)CC2)cc1-c1c2c3cc(cc4c3n1CCO4)-c1csc(n1)C[C@H](NC(=O)[C@H]1[C@@H]3COC[C@@H]31)C(=O)N1CCC[C@H](N1)C(=O)OCC(C)(C)C2 (atropisomer, axis not shown; (M)) [Example 12, (1S,5R,6r)-N-[(7S,13S)-(20M)-20-[2-[(1S)-1-methoxyethyl]-5-[4-(2,2,2-trifluoroethyl)piperazin-1-yl]-3-pyridyl]-17,17-dimethyl-8,14-dioxo-15,24-dioxa-4-thia-9,21,30,31-tetrazahexacyclo[23.3.1.1^2,5.1^9,13.0^19,27.0^21,26]hentriaconta-1 (28),2,5 (31),19,25 (29),26-hexaen-7-yl]-3-oxabicyclo[3.1.0]hexane-6-carboxamide] | 3.8 nM | 2.2 nM | 1.2 nM | 12 nM | 2 nM | 25 nM | 12.5 nM
CO[C@@H](C)c1ncc(N2CCN(CC(F)(F)F)CC2)cc1-c1c2c3cc(cc4c3n1CCC4)-c1csc(n1)C[C@H](NC(=O)[C@H]1[C@@H]3COC[C@@H]31)C(=O)N1CCC[C@H](N1)C(=O)OCC(C)(C)C2 (atropisomer, axis not shown; (M)) [Example 13, (1S,5R,6r)-N-[(7S,13S)-(20M)-20-[2-[(1S)-1-methoxyethyl]-5-[4-(2,2,2-trifluoroethyl)piperazin-1-yl]-3-pyridyl]-17,17-dimethyl-8,14-dioxo-15-oxa-4-thia-9,21,30,31-tetrazahexacyclo[23.3.1.1^2,5.1^9,13.0^19,27.0^21,26]hentriaconta-1 (28),2,5 (31),19,25 (29),26-hexaen-7-yl]-3-oxabicyclo[3.1.0]hexane-6-carboxamide] | 3 nM | 10.8 nM | 1.5 nM | 1.5 nM | 0.7 nM | 23 nM | 6.4 nM
CO[C@@H](C)c1ncc(N2CCN(C)CC2)cc1-c1c2c3cc(cc4c3n1CCC4)-c1csc(n1)C[C@H](NC(=O)[C@H]1C[C@@H]1C(F)F)C(=O)N1CCC[C@H](N1)C(=O)OCC(C)(C)C2 (atropisomer, axis not shown; (M)) [Example 14, (1S,2S)-2-(difluoromethyl)-N-[(7S,13S)-(20M)-20-[2-[(1S)-1-methoxyethyl]-5-(4-methylpiperazin-1-yl)-3-pyridyl]-17,17-dimethyl-8,14-dioxo-15-oxa-4-thia-9,21,30,31-tetrazahexacyclo[23.3.1.1^2,5.1^9,13.0^19,27.0^21,26]hentriaconta-1 (28),2,5 (31),19,25 (29),26-hexaen-7-yl]cyclopropanecarboxamide] | 0.8 nM | 5.6 nM | 0.7 nM | 22.2 nM | 1 nM | 17.5 nM | 3.6 nM
CO[C@@H](C)c1ncc(N2CCN(C)CC2)cc1-c1c2c3cc(cc4c3n1CCC4)-c1csc(n1)C[C@H](NC(=O)[C@H]1[C@@H]3COC[C@@H]31)C(=O)N1CCC[C@H](N1)C(=O)OCC(C)(C)C2 (atropisomer, axis not shown; (M)) [Example 15, (1S,5R,6r)-N-[(7S,13S)-(20M)-20-[2-[(1S)-1-methoxyethyl]-5-(4-methylpiperazin-1-yl)-3-pyridyl]-17,17-dimethyl-8,14-dioxo-15-oxa-4-thia-9,21,30,31-tetrazahexacyclo[23.3.1.1^2,5.1^9,13.0^19,27.0^21,26]hentriaconta-1 (28),2,5 (31), 19,25 (29),26-hexaen-7-yl]-3-oxabicyclo[3.1.0]hexane-6-carboxamide] | 0.7 nM | 5.2 nM | 0.8 nM | 11.9 nM | 1.2 nM | 15.9 nM | 6.6 nM
CO[C@@H](C)c1ncc(N2CCN(C)CC2)cc1-c1c2c3cc(cc4c3n1CCC4)-c1csc(n1)C[C@H](NC(=O)[C@@H]1C[C@H]1C1CC1)C(=O)N1CCC[C@H](N1)C(=O)OCC(C)(C)C2 (atropisomer, axis not shown; (M)) [Example 16, (1R,2S)-2-cyclopropyl-N-[(7S,13S)-(20M)-20-[2-[(1S)-1-methoxyethyl]-5-(4-methylpiperazin-1-yl)-3-pyridyl]-17,17-dimethyl-8,14-dioxo-15-oxa-4-thia-9,21,30,31-tetrazahexacyclo[23.3.1.1^2,5.1^9,13.0^19,27.0^21,26]hentriaconta-1 (28),2,5 (31),19,25 (29),26-hexaen-7-yl]cyclopropanecarboxamide] | 4.6 nM | 2.6 nM | 2.8 nM | 10.2 nM | 1.6 nM | 25.9 nM | 7.3 nM
CO[C@@H](C)c1ncc(N2CCN(C)CC2)cc1-c1c2c3cc(cc4c3n1CC(F)(F)C4)-c1csc(n1)C[C@H](NC(=O)[C@H]1C[C@@H]1C)C(=O)N1CCC[C@H](N1)C(=O)OCC(C)(C)C2 (atropisomer, axis not shown; (M)) [Example 18, (1S,2S)-N-[(7S,13S)-23,23-difluoro-(20M)-20-[2-[(1S)-1-methoxyethyl]-5-(4-methylpiperazin-1-yl)-3-pyridyl]-17,17-dimethyl-8,14-dioxo-15-oxa-4-thia-9,21,30,31-tetrazahexacyclo[23.3.1.1^2,5.1^9,13.0^19,27.0^21,26]hentriaconta-1 (28),2,5 (31),19,25 (29),26-hexaen-7-yl]-2-methyl-cyclopropanecarboxamide] | 16.8 nM | 7.7 nM | 7.4 nM | 14.7 nM | 2.9 nM | 54.5 nM | 18 nM
CO[C@@H](C)c1ncc(N2CCN(CC(F)(F)F)CC2)cc1-c1c2c3cc(cc4c3n1CCC4)-c1csc(n1)C[C@H](NC(=O)[C@H]1C[C@@H]1C(F)F)C(=O)N1CCC[C@H](N1)C(=O)OCC(C)(C)C2 (atropisomer, axis not shown; (M)) [Example 21, (1S,2S)-2-(difluoromethyl)-N-[(7S,13S)-(20M)-20-[2-[(1S)-1-methoxyethyl]-5-[4-(2,2,2-trifluoroethyl)piperazin-1-yl]-3-pyridyl]-17,17-dimethyl-8,14-dioxo-15-oxa-4-thia-9,21,30,31-tetrazahexacyclo[23.3.1.1^2,5.1^9,13.0^19,27.0^21,26]hentriaconta-1 (28),2,5 (31),19,25 (29),26-hexaen-7-yl]cyclopropanecarboxamide] | 2.1 nM | 8.8 nM | 1.4 nM | 15 nM | 1.9 nM | 56.2 nM | 15.3 nM
CO[C@@H](C)c1ncc(N2CCN(C)CC2)cc1-c1c2c3cc(cc4c3n1CCC4)-c1csc(n1)C[C@H](NC(=O)[C@H]1C[C@@H]1c1ccccc1)C(=O)N1CCC[C@H](N1)C(=O)OCC(C)(C)C2 (atropisomer, axis not shown; (M)) [Example 22, (1S,2S)-N-[(7S,13S)-(20M)-20-[2-[(1S)-1-methoxyethyl]-5-(4-methylpiperazin-1-yl)-3-pyridyl]-17,17-dimethyl-8,14-dioxo-15-oxa-4-thia-9,21,30,31-tetrazahexacyclo[23.3.1.1^2,5.1^9,13.0^19,27.0^21,26]hentriaconta-1 (28),2,5 (31), 19,25 (29),26-hexaen-7-yl]-2-phenyl-cyclopropanecarboxamide] | 0.6 nM | 3.8 nM | 0.7 nM | 6.4 nM | 0.8 nM | 14.2 nM | 3.1 nM
